# Test results published in patent publication US20240317792A1, “CYCLIC DINUCLEOTIDE METAL COMPOUND, AND PREPARATION AND APPLICATION THEREOF” (HANGZHOU XINGAO BIOTECHNOLOGY CO., LTD., priority 2022, published 2024).
# Legend:
# [1] = system: T(CD8+) cells; assay: Flow cytometry of CD8+ T cells in spleen and lung after immunization; format: in vivo, C57BL/6 ordinary mice; conditions: after 14 days of immunization
# Source text: Experimental animals: C57BL/6 ordinary mice, male, weighing 20-22 grams, 7-8 weeks old, purchased from Shanghai SLAC Laboratory Animal Co. Ltd.
# The mice were randomly divided into 8 groups (10 mice in each group). The 8 groups were as listed follows: A: Negative control group (isotype control antibody group); B: blank group; C: cyclic dinucleotide group; D: [Li2(cGAMP)] group; E: [Mg(cGAMP)] group; F: [Zn(cGAMP)] group; G: [Mn(cGAMP)] group; and H: [Fe(cGAMP)] group. Isotype control flow antibody was purchased from eBiosciences, antibody magnetic strain was purchased from Militeny Biotech, and flow cytometry was purchased from BD company. After 14 days of immunization (immunization process was the same as that in the Example 12), spleens and lung tissues of the mice were collected, respectively mashed, filtered through 40 micron pores followed by 1000 rpm of centrifugation for 10 min to solate unlysed immune cells. Dendritic cells (DCs) (CD40\CD80\CD86\MHCII), T(CD8+) cells were separated, and added with corresponding FAC antibodies (diluted with Fluorescence-Activated Cell Sorting (FACS) buffer). Isotype control antibody was used as negative control. After antibody addition, the DCs and T (CD8+) cells were incubate for 1 h, centrifuged and washed by phosphate buffer saline (PBS) followed by analysis by the flow cytometry to sort suitable cells. Fluorescence intensity (MFI) of sorted cells was measured.
# [2] = system: IRI mice (male SD mice); assay: Cerebral ischemia-reperfusion injury (IRI) model, TTC dyeing; format: in vivo; conditions: 2 h ischemia, 24 h reperfusion; caudal vein injection 5 mg/kg (Edaravone 6 mg/kg) after 30 min ischemia
# Procedure: Experimental animals: healthy male mice, weighing 280-300 grams, purchased from Shanghai SLAC Laboratory Animal Co. Ltd, with quality certificate No. (SCXK (Shanghai) 2007-0005), and kept in clean animal houses.
# Establishment of a mouse cerebral ischemia model of mice and experimental method: 280-300 grams of male […] mice were selected for experiments. The male SD mice were subjected to fasting without water deprivation for 12 h before operation followed by weighing, numbering and random grouping. The male SD mice were anesthetized by intraperitoneal injection of 10 wt. % chloral hydrate at a dosage of 0.3 mL/100 g. After the male SD mice had no pain reflexes, they were subjected to neck skin preparation followed by being fixed on a dissecting table in supine position. After neck skins were disinfected with sterilized cotton balls, about 1 cm of the neck skins were cut in mid-cervical to expose subcutaneous tissues, and subcutaneous fat and the fascia were bluntly plucked with curved tweezers to expose neck muscle groups. The common carotid arteries and their upwardly internal and external carotid branches were visualized by opening the digastric muscle. The external, internal, and common carotid arteries were carefully dissected, and a thin wire was threaded under each of the three arteries, and homemade plastic spacers were placed under the common carotid arteries. The external carotid arteries and proximal ends of the common carotid arteries were ligated. After the internal common carotid arteries were clamped by arterial clips, the common carotid arteries were stuck into with homemade curved hooks followed by picking up and leading in monofilaments. The spacers were removed, and the monofilaments were gently pushed into the internal common carotid arteries and craniums. […] At this time, blood supplies of the middle cerebral arteries from the anterior cerebral arteries were blocked. Thin wires under the internal carotid arteries were ligated to secure the monofilaments to prevent the monofilaments from retreating. Excess thin wires were cut, penicillin was applied to wounds to prevent infection. The male SD mice were sutured and placed under a warm lamp to keep warm. Timing was performed when blood flows of the middle cerebral arteries were blocked by the monofilaments. After 2 hours, the monofilaments were gently pulled out and the black marks were seen, then reperfusion can be achieved.
# Triphenyl tetrazolium chloride (TTC) dyeing: After being injured by 2 h cerebral ischemia and 24 h reperfusion, the male SD mice were anesthetized with 0.3 mL/100 g dosage of 10 wt. % of chloral hydrate by intraperitoneal injection and subjected to abdominal aorta bleeding to reduce influence of blood in brains. Then whole heads of the male SD mice were removed immediately after decapitating, and washed with normal saline followed by being promptly put into a −20° C. refrigerator to freeze for 20 min. Frozen brains were collected and subjected to coronal sections, each 2 mm of thickness, by a blade. Then the coronal sections were subjected to dark dyeing in a 2 wt. % of TTC solution for 20 min and fixing in a 4 wt. % of polyformaldehyde solution for 6 h followed by photographing. Then, Photoshop software was used to define area and calculate, and a formula was represented as a percentage of cerebral ischemic area=a total area of white area/a total area of ischemic hemisphere×100%.
# Drug preparation and experimental grouping: Edaravone was used as a positive control drug, and an Edaravone injection was 30 mg/20 mL. A single dosage for each of the male SD mice was 0.4 mL/100 g, that is, 6 mg/kg. The cyclic dinucleotide metal compounds prepared in Examples 1-5 were prepared into […] injection drugs with the normal saline. Each of the male SD mice was subjected to caudal vein injection with 0.4 mL/100 g dosage of drugs, that is, 5 mg/kg. The male SD mice were divided into 8 groups (10 mice in each group). […]
# [3] = system: mouse breast cancer cell line 4T1; assay: Subcutaneously transplanted 4T1 tumor growth inhibition; format: in vivo, BALB/c ordinary mice; conditions: 4T1 in BALB/c mice; 10 mg/kg intraperitoneal once every 2 days for 20 days
# Source text: Experimental animals: BALB/c ordinary mice and C57BL/6 ordinary mice, male, weighing 20-22 grams, 7-8 weeks old, purchased from Shanghai SLAC Laboratory Animal Co. Ltd.
# Tumour cell line: mouse colorectal cancer cell line CT26 and mouse breast cancer cell line 4T1, both purchased from Chinese Academy of Sciences Cell Bank.
# Establishment and intervention of tumor model mice: cells were subjected to culture and subculture, collected in a logarithmic phase and prepared as 1.0×10^7/mL of cell suspension. 0.2 mL of the cell suspension was injected armpits of forelegs of the mice (with a cell number of 2.0×10^6), and tumor transplantation was successful in about 7 days. Mice with successful tumor transplantation were randomly divided into 7 groups (10 mice in each group). The 7 groups were listed as follows: A: negative control group (injection with normal saline); B: positive control cGAMP group (10 mg/kg of injection); C: [Li2(cGAMP)] group (10 mg/kg of injection); D: [Mg(cGAMP)] group (10 mg/kg of injection); E: [Zn(cGAMP)] group (10 mg/kg of injection); F: [Mn(cGAMP)] group (10 mg/kg of injection); and G: [Fe(cGAMP)] group (10 mg/kg of injection). The mice with successful tumor transplantation were subjected to administration by intraperitoneal injection with a volume of 200 μL per mice once every 2 days for 20 days. After 20 days, the mice with successful tumor transplantation were killed, and the tumor were weighed. A formula of inhibitory rate of tumor was as represented as inhibitory rate of tumor=[1−average tumor weight of experimental group/average tumor weight of the negative control group]×100%.
# According to the establishment of tumor model mice, the mouse colorectal cancer cell line CT26 was cultured and transplanted to the BALB/c ordinary mice, and the mouse breast cancer cell line 4T1 was cultured and transplanted to the BALB/c ordinary mice.
# Statistical analysis: data was expressed as mean±standard deviation and processed by the SPSS10.0 software. One-way ANOVA was used to detect and compare significance of tumor weights in each group.
Compound,Lung (% CD8 + T cells) [1],Spleen (% CD8 + T cells) [1],Average value of percentage of cerebral ischemic area [2],Average inhibitory rate of tumor [3],Average tumor weight [3]
"Nc1nc2c(ncn2C2OC3COP(=O)([O-])OC4C(COP(=O)([O-])OC2C3O)OC(n2cnc3c(N)ncnc32)C4O)c(=O)[nH]1.[Fe+2] (stereo not drawn) [[Fe(cGAMP)], ferrous cyclic dinucleotide]",0.7 ± 0.3%,6.9 ± 1.2%,26.78%,83.6%,0.301 ± 0.116 g
"Nc1nc2c(ncn2[C@@H]2O[C@@H]3COP(=O)(O)O[C@H]4[C@@H](O)[C@H](n5cnc6c(N)ncnc65)O[C@@H]4COP(=O)(O)O[C@@H]2[C@@H]3O)c(=O)[nH]1 [cGAMP, 2′3′-cGAMP, reference compound]",0.5 ± 0.2%,2.2 ± 0.2%,26.86%,58.8%,0.761 ± 0.157 g
"Nc1nc2c(ncn2[C@@H]2O[C@@H]3COP(=O)([O-])O[C@H]4[C@@H](O)[C@H](n5cnc6c(N)ncnc65)O[C@@H]4COP(=O)([O-])O[C@@H]2[C@@H]3O)c(=O)[nH]1.[Mg+2] [[Mg(cGAMP)], magnesium cyclic dinucleotide]",1.7 ± 0.3%,6.2 ± 0.6%,18.16%,63.2%,0.679 ± 0.183 g
"Nc1nc2c(ncn2C2OC3COP(=O)([O-])OC4C(COP(=O)([O-])OC2C3O)OC(n2cnc3c(N)ncnc32)C4O)c(=O)[nH]1.[Mn+2] (stereo not drawn) [[Mn(cGAMP)], manganese cyclic dinucleotide]",0.8 ± 0.3%,7.5 ± 1.3%,25.56%,84.9%,0.287 ± 0.116 g
"Nc1nc2c(ncn2[C@@H]2O[C@@H]3COP(=O)([O-])O[C@H]4[C@@H](O)[C@H](n5cnc6c(N)ncnc65)O[C@@H]4COP(=O)([O-])O[C@@H]2[C@@H]3O)c(=O)[nH]1.[Li+].[Li+] [[Li2(cGAMP)], lithium cyclic dinucleotide]",0.6 ± 0.2%,3.1 ± 0.3%,25.25%,61.5%,0.712 ± 0.146 g
"Nc1nc2c(ncn2[C@@H]2O[C@@H]3COP(=O)([O-])O[C@H]4[C@@H](O)[C@H](n5cnc6c(N)ncnc65)O[C@@H]4COP(=O)([O-])O[C@@H]2[C@@H]3O)c(=O)[nH]1.[Zn+2] [[Zn(cGAMP)], zinc cyclic dinucleotide]",1.6 ± 0.2%,8.6 ± 1.8%,23.52%,89.1%,0.212 ± 0.135 g
